Row | SMILES | melting point [°C]
1 | O=C(Nc1cccc(C(F)(F)F)c1)c1cccc2cc(Oc3cc(CO)ncn3)ccc12 | 183 to 184
2 | Cc1nc(-c2cccnc2)sc1-c1ccnc(Nc2cccc(CN)c2)n1 | 211 to 213
3 | NC(C=Cc1cccs1)=NO | 92
4 | CC1(C)Oc2ccccc2C=C1/C=C/C=C/C=C/C(=O)O | 180 to 182
5 | C=CCNC(=S)NC(=O)c1ccccc1 | 68 to 69
6 | CCCC#Cc1cnc(-c2ccc(C(F)(F)F)cc2)nc1 | 140
7 | COc1ccccc1N1CCN(C2(C(=O)c3ccc(Cl)cc3)CC2)CC1 | 103 to 104
8 | COc1cc2cc(-c3ccccc3)sc2c(Cl)c1Cl | 144 to 145
9 | Cc1ccc(Cl)c2c(C)c(C(=O)O)[nH]c12 | 211 to 213
10 | OCC#CC1=Cc2ccccc2Sc2ccc(Cl)cc21 | 111 to 113
11 | N#CCCNC(=O)c1n[nH]cc1NC(=O)c1cc(Cl)ccn1 | 261 to 263
12 | CSc1cc2c(cc1C(F)(F)F)N(C(=O)Nc1ccc(-c3csc(-c4ccncc4)n3)cc1)CC2 | 253 to 254
13 | NS(=O)(=O)c1ccc(-c2cccc(-c3nc(-c4ccc(C(F)(F)F)nc4)cc(C(F)(F)F)n3)c2)s1 | 250
14 | CCOC(=O)Cc1sc(Sc2cc(C(=O)OC)ccn2)nc1C | 52 to 54
15 | Cc1nc2ccccc2c(=O)n1-c1ccccc1C#N | 165 to 166
16 | COC(OC)C(=O)NC(Cc1ccccc1)c1ccccc1 (stereo not given) | 108 to 110
17 | CCC(=S)N1CCC[C@H]1C(=O)O | 123 to 124
18 | CCn1c(Nc2cc(C(F)(F)F)ccc2C(F)(F)F)nc(C(F)(F)F)c(Cl)c1=O | 144 to 146
19 | O=c1[nH]cnc2c1cnn2-c1ncc(C(F)(F)F)cc1Cl | 331
20 | Cc1ccc(C(=O)n2nc(Nc3ccc(O)cc3)nc2N)cc1 | 221 to 223

Row | SMILES | melting point [°C]
21 | CC(CCCNc1ccccc1)C1CC=C2C3=C(CCC21C)C1(C)CCC(O)C(C)(C)C1CC3 (stereo not given) | 178 to 180
22 | COc1cc(Nc2cc(-c3ccc(F)cc3)nc3ccccc23)ccc1Cl | 274 to 276
23 | COc1cc(N)c2nc(Cl)cc(C)c2c1Oc1cccc(C(F)(F)F)c1 | 133 to 135
24 | O=C1CC(c2cccc(-n3ccnc3)c2)=Nc2ccc(-c3ccccc3F)cc2N1 | 179 to 182
25 | CCN1CC=CC2=C1N1CN(OC)C=C1N=N2 | 167 to 168
26 | CC(C)(C)OC(=O)Nc1cc(N2CCOCC2)c(C#Cc2ccccc2)cc1N | 174 to 176
27 | CCC1(C)CC(C)(C)c2cc(O)ccc21 (stereo not given) | 86
28 | NS(=O)(=O)c1cccc(-c2cn(-c3cc(-c4ccc(C(F)(F)F)cc4)cc(C(F)(F)F)n3)cn2)c1 | > 250
29 | COCCCNc1nc(N)c(SC)c(F)n1 | 48 to 64
30 | Cc1cc(NC(=O)C(F)(c2ccccc2)c2nnn(CCCCCCCCCCCC(F)F)n2)c(C)c(C)c1O (stereo not given) | 96
31 | CCCCCCCCCCCCCCCCCCOc1cc(OCc2ccccc2)cc(C(=O)O)c1 | 97 to 99
32 | CCN(CC)C(=O)c1ccccc1C1CC1c1ccccc1 (stereo not given) | 52 to 53
33 | CC1(C)CCSc2cc(C(=O)Nc3ccc(C(=O)O)cc3)ccc21 | 274 to 276
34 | CCCCNC(=O)c1ccc(Cl)c(-n2nc(CCCC)n(Cc3ccc(-c4ccccc4S(=O)(=O)NC(=O)c4ccccc4Cl)cc3F)c2=O)c1 | 218 to 220
35 | Cn1nc(-c2c(Cl)cncc2Cl)nc1Cc1ccc(Cl)cc1 | 142 to 143
36 | O=C(/C=C/[C@@H]1[C@H]2CC(=O)O[C@H]2C[C@H]1OC(=O)c1ccc(-c2ccccc2)cc1)COc1cccc(C(F)(F)F)c1 | 115 to 116
37 | O=c1sc2ccccc2n1CO | 101 to 103
38 | CC(C)(C)NC(=O)c1ccc(-c2cccc3cncn23)cc1 | 128 to 131
39 | COc1cc(C(C)C)c2c(c1)S(=O)(=O)NC2=O | 188
40 | CN(C=O)c1ccc(F)c(Cl)c1 | 47 to 48

Row | SMILES | melting point [°C]
41 | CC(=N)Nc1cccc(C(C)O)c1 (stereo not given) | 132 to 135
42 | C/C(=C(\C#N)C(N)=S)N1CCCN(c2cccc(C)c2)CC1 | 144 to 148
43 | Nc1ccc(-n2ccn(-c3ccc(OCC(F)(F)C(F)F)cc3)c2=O)cc1 | 178 to 179
44 | CN1Cc2c(C#Cc3ccccc3)ncn2-c2cccc(Cl)c2C1=O | 205 to 206
45 | COc1nc2c(Cl)c(Cl)c(Cl)c(Cl)c2n1COCCO | 139
46 | CCSc1c(Cl)nc(Cl)nc1Cl | 62 to 64
47 | Cn1nnc2c1C(=O)C(Cl)=C(Cl)C2=O | 254 to 255
48 | COC(=O)C(Cc1cc(Br)c(O)c(Br)c1)NC(=O)C(F)(F)F (stereo not given) | 136 to 137
49 | Nc1nsc2nc3ccccc3n12 | 255 to 256
50 | O=C(O)Cc1cc(OCc2ccccc2)ccc1OCc1ccccc1 | 95.5 to 100
51 | CC(=O)C1CCC2C3CCC4CC(O)C(C)CC4(C)C3C(=O)CC12C (stereo not given) | 142 to 146
52 | O=C(c1ccncc1)c1cc(Br)cc(Br)c1 | 89 to 92
53 | CCN(CC1CCN(C(N)=O)CC1)C(C)Cc1ccc(OC)cc1 (stereo not given) | 104 to 110
54 | O=C(O)[C@@H]1C[C@H](C2CCCCC2)CN1C(=O)CP(=O)(O)CCCCc1ccccc1 | 175 to 176
55 | CC1NC(=O)NN=C1c1ccc(OCC(=O)NN)c(Cl)c1 (stereo not given) | 252 to 254
56 | CC(C)(c1ccccc1)N(C(N)=O)C(C)(C)c1ccccc1 | 226 to 227
57 | CC(Nc1nc2ccc(Cl)cc2cc1C(=O)O)C(=O)Nc1ccc2ccccc2c1 (stereo not given) | 230 to 243
58 | CC(O)CCCCCc1ccc(-c2ccccc2)cc1 (stereo not given) | 47 to 48
59 | C#CC(OC)Oc1cc(Cc2cnc(N)nc2N)cc(OC)c1OC (stereo not given) | 153 to 155
60 | CCCOCN(C(=O)CCl)c1c(OC)cccc1OC | 83 to 85

Other lines, results leading:

Row | melting point [°C] | SMILES
61 | 183 to 185 | CCOC(=O)Cc1c(C(=O)O)c(Br)c(C(=O)c2ccc(C)cc2)n1C
62 | 136 to 137 | CC(=O)NCC1CCCc2cc(NS(=O)(=O)c3cccc(F)c3)ccc21 (stereo not given)
63 | 190 to 196 | CCc1c(-c2ccccc2)c2c(c3c1[nH]c1ccc(O)cc13)C(=O)NC2=O
64 | 89 to 91 | CCCc1c(COc2ccc(Cc3nnn(CCCS(C)(=O)=O)n3)cc2)ccc(C(C)=O)c1O
65 | 190 to 195 | CCCCCCC(C(=O)N1CCC[C@H]1C(=O)O)n1cnc(NC(=O)c2ccccc2S(=O)(=O)O)c1 (stereo not given in full)
66 | 110 | C[C@H](NC(=O)OC(C)(C)C)C(=O)OC[C@@H]1CCCN1c1cccc2c1C(=O)c1ccccc1C2=O
67 | 155 to 156 | O=C(CCCCCl)NC1c2ccccc2CSc2ccccc21 (stereo not given)
68 | 108 to 110 | COc1ccc(S(=O)(=O)N(Cc2ccccc2)c2c(C(=O)O)cnc3c2cnn3-c2ccccc2)cc1
69 | 256 to 258 | CCc1cccc2c1[nH]c1c2ccc2cc[nH]c21
70 | 30 to 50 | CC(=O)Oc1cccc(C(C)=NOCCOc2ccc(CC3SC(=O)NC3=O)cc2)c1 (stereo not given)
71 | 215 to 218 | CCOC(=O)C1CCCN(S(=O)(=O)c2ccc3[nH]c(=O)c4cccc5c4c3c2C5)C1 (stereo not given)
72 | 195 to 199 | NS(=O)(=O)c1cc2c(Cl)c(N3CCOCC3)ccc2s1
73 | 242 to 244 | CNC1NC(=O)N(c2ccccc2)C(=O)N1N (stereo not given)
74 | 70 | CC(=O)NC[C@H]1CN(c2ccc(/C=C3\C(=O)N(c4ccccc4)N=C3C(C)(C)C)cc2)C(=O)O1
75 | 70 to 71 | COc1ccc2c(n1)c(CCNC(=O)c1ccco1)c1n2CCCc2ccccc2-1
76 | 241 to 243 | Oc1ccc2nc(-c3ccc(O)c(C45CC6CC(CC(C6)C4)C5)c3)[nH]c2c1
77 | 233 to 234 | COC(=O)c1cc(C(=O)NN2CCCCC2)c2cc(Cc3ccc(F)cc3)cnc2c1O
78 | 140 to 142 | CCN(CC)CCCN(Cc1ccc(COc2cccc3c2CN(C2CCC(=O)NC2=O)C3=O)cc1)C(=O)OC(C)(C)C (stereo not given)
79 | 95.5 to 95.7 | O=c1cc(OCc2cccc(Cl)c2)ccn1Cc1ccccc1
80 | 110 to 114 | COCCOc1ccc(CCCNS(=O)(=O)c2cccc(Cl)c2)c(Oc2ncc(C(F)(F)F)cc2Cl)c1

Row | melting point [°C] | SMILES
81 | 193 to 194 | CCN1C(=S)NNC1c1ccccc1NC(C)=O (stereo not given)
82 | 166 to 168 | COCCOc1ccccc1S(=O)(=O)NC(=O)Nc1nc(Cl)cc(OC)n1
83 | 149 | O=S1(=O)c2cccc3cccc(c23)N1CCCN1CCN(c2ccc(Br)cc2)CC1
84 | 112 to 115 | COc1ccc(-n2nnnc2C(F)(F)F)cc1CN[C@H]1CCN(C(=O)CNC(C)=O)C[C@H]1c1ccccc1
85 | 237 to 238 | CC1(c2ccc(Br)cc2)C(=O)Nc2cc(Cl)cc(Cl)c2C1=O (stereo not given)
86 | 114 to 117 | C=CCN1c2ccccc2-c2noc3c2C1CCC3 (stereo not given)
87 | 88 to 90 | CCOC(=O)Cc1c(C(=O)OCC)c(Br)c(C(=O)c2ccc(Cl)cc2)n1C
88 | 95 | CCOC(CCCN1CCC(NC(=O)c2ccccc2)CC1)OCC
89 | 202 to 203 | Cc1ccccc1-c1c(C(=O)O)c(=O)n(C)c2ccc(Cl)cc12
90 | 138 to 140 | CC(=O)Nc1ccc(C2=NN(C(=O)CCl)C(C)Cc3cc4c(cc32)OCO4)cc1 (stereo not given)
91 | 166 to 167 | O=c1cc2c(nn1-c1ccc(Cl)cc1)-c1cccnc1CC2
92 | 115 to 116 | O=C1c2ccccc2C(=O)N1C/C=C(\F)COc1ccc(Cl)cc1Cl
93 | 235 to 236 | CCc1cn(C2CC(O)C(CNC(=O)C(CC)c3ccccc3)O2)c(=O)[nH]c1=O (stereo not given)
94 | 142 to 144 | CCn1c(C(C)NS(=O)(=O)c2ccc(Cl)c(Cl)c2)cnc1Oc1ccc(C)cc1 (stereo not given)
95 | 113 to 115 | CN(Cc1cc2c3c(c1)c(=O)c(C(=O)NCc1ccc(F)cc1)cn3CC(=O)N2C)C[C@@H](O)c1cccs1
96 | 168 to 169 | COc1cc(F)nc(NC(=O)NS(=O)(=O)c2ccccc2OS(C)(=O)=O)n1
97 | 266 to 268 | O=C(O)c1ccc(S(=O)(=O)Nc2cc3c4c(c2)CCCC4CCC3)cc1
98 | 115 to 117 | CC(C)CC1(CC(=O)NOCc2ccccc2)CC(=O)N(CCc2ccccc2)C1=O (stereo not given)
99 | 173 to 175 | O=C(SCCC(=O)N1c2ccccc2CC1C(=O)O)c1ccccc1 (stereo not given)
100 | 89 to 90 | CCOc1ccc(C[N+](=O)[O-])c(C=CC[N+](=O)[O-])c1OCc1ccccc1
